According to patent US9637516B2, “Betulinic acid proline derivatives as HIV inhibitors” (HETERO RESEARCH FOUNDATION, priority 2012, dated 2017):

How the values were obtained:
[1] = test system: HIV-1 strain 92HT599; test: Antiviral activity: p24 estimation in MT2 cells infected with HIV-1 strain 92HT599; assay type: cell-based; conditions: for inhibition at 0.1 µM: Human immunodeficiency virus 1, 100 nM; for inhibition at 0.1 µM / inhibition at 1 µM: HIV-1 92HT599, p24, ~96 hours; for inhibition at 1 µM: Human immunodeficiency virus 1, 1000 nM
Method: MT2 cells were infected with HIV-1 strain 92HT599 (10 TCID 50/30000 cells). The infected cells were plated at the concentration of ˜30 000 cells per well in 96 well plate. Test compound was added to the micro plate in defined format with the final concentration of DMSO (vehicle) is not more than 1%. Incubation was carried out in CO2 incubator for ˜96 hours for viral infection. At the end of incubation period an aliquot from each well was taken for p24 estimation. The quantitation of p24 is an index for antiviral activity of the compound. Percent inhibition was calculated with reference to control values (vehicle controls). p-24 estimation was carried out using Advance biosciences kit as per the procedure detailed by supplier.

[2] = Single dose oral pharmacokinetic study; assay type: in vivo, mice; conditions: mouse, plasma
Method: The test item was administered through oral route to animals (rat/mice) at 30 mg/kg dose in a suitable vehicle at 10 ml/kg dose volume. Blood samples (˜50 uL at each time point) were collected from retro-orbital plexus using K3 EDTA as anticoagulant in eppendorf tubes at defined time intervals under light ether anesthesia. The samples were centrifuged at 3500×g to separate plasma and stored at −80° C. until analysis.
Sample analysis: Test samples were analyzed using LC-MS-MS after developing fit-for-purpose method for each of test compound.

[3] = Mice oral PK @30 mg/kg (Table 3)
[4] = Mice oral PK @30 mg/kg (Table 4)

Structure (SMILES)	inhibition at 0.1 µM [1]	inhibition at 1 µM [1]	other results
C=C(C)[C@@H]1CC[C@]2(C(=O)N3CCC[C@@H]3c3nc(-c4ccccc4)no3)CC[C@]3(C)[C@H](CC[C@@H]4[C@@]5(C)CC[C@H](OC(=O)CC(C)(C)C(=O)O)C(C)(C)[C@@H]5CC[C@]43C)[C@@H]12 [Compound 1, 2,2-dimethyl-4-oxo-4-((1R,3aS,5aR,5bR,7aR,9S,11aR,11bR,13aR,13bR)-5a,5b,8,8,11a-pentamethyl-3a-((R)-2-(3-phenyl-1,2,4-oxadiazol-5-yl)pyrrolidine-1-carbonyl)-1-(prop-1-en-2-yl)icosahydro-1H-cyclopenta[a]chrysen-9-yloxy)butanoic acid]			IC50 ([1]; Human immunodeficiency virus 1, HIV-1 92HT599, p24): 5.02 nM; AUC(0-t) [2, 3]: 125 µg·h/mL; Cmax [2, 3]: 12700 ng/mL; Tmax [2, 3]: 6 h
C=C(C)[C@@H]1CC[C@]2(C(=O)N3CCC[C@H]3c3ncc(-c4ccc([N+](=O)[O-])cc4)[nH]3)CC[C@]3(C)[C@H](CC[C@@H]4[C@@]5(C)CC[C@H](OC(=O)[C@H]6C[C@@H](C(=O)O)C6(C)C)C(C)(C)[C@@H]5CC[C@]43C)[C@@H]12 [Compound 17]	96%	100%	
C=C(C)[C@@H]1CC[C@]2(C(=O)N3CCCC3c3ncc(-c4ccc(C#N)cc4)[nH]3)CC[C@]3(C)[C@H](CC[C@@H]4[C@@]5(C)CC[C@H](OC(=O)[C@H]6C[C@@H](C(=O)O)C6(C)C)C(C)(C)[C@@H]5CC[C@]43C)[C@@H]12 (stereo partly shown) [Compound 19]	86%	100%	
CC1(C)C(C(=O)O)CC1C(=O)O[C@H]1CC[C@]2(C)[C@H]3CC[C@@H]4[C@H]5[C@H](C6(C)CC6)CC[C@]5(C(=O)N5CCC[C@H]5c5ncc(-c6cccnc6)[nH]5)CC[C@@]4(C)[C@]3(C)CC[C@H]2C1(C)C (stereo partly drawn) [Compound 32, 2,2-dimethyl-3-((((1R,3aS,5aR,5bR,7aR,9S,11aR,11bR,13aR,13bR)-5a,5b,8,8,11a-pentamethyl-1-(1-methylcyclopropyl)-3a-((S)-2-(5-(pyridin-3-yl)-1H-imidazol-2-yl)pyrrolidine-1-carbonyl)icosahydro-1H-cyclopenta[a]chrysen-9-yl)oxy)carbonyl)cyclobutane-1-carboxylic acid]	100%	100%	
C=C(C)[C@@H]1CC[C@]2(C(=O)N3CCC[C@H]3c3ncc(-c4ccc(O)cc4)[nH]3)CC[C@]3(C)[C@H](CC[C@@H]4[C@@]5(C)CC[C@H](OC(=O)C6CC(C(=O)O)C6(C)C)C(C)(C)[C@@H]5CC[C@]43C)[C@@H]12 (stereo partly drawn) [Compound 36, 3-((((1R,3aS,5aR,5bR,7aR,9S,11aR,11bR,13aR,13bR)-3a-((S)-2-(5-(4-hydroxyphenyl)-1H-imidazol-2-yl)pyrrolidine-1-carbonyl)-5a,5b,8,8,11a-pentamethyl-1-(prop-1-en-2-yl)icosahydro-1H-cyclopenta[a]chrysen-9-yl)oxy)carbonyl)-2,2-dimethylcyclobutane-1-carboxylic acid]			AUC(0-inf) [2, 4]: 518 µg·h/mL; AUC(0-t) [2, 4]: 334 µg·h/mL; Cmax [2, 4]: 10900 ng/mL; half-life [2, 4]: 30.3 h
C=C(C)[C@@H]1CC[C@]2(C(=O)N3CCC[C@@H]3c3ncc(-c4ccccc4)[nH]3)CC[C@]3(C)[C@H](CC[C@@H]4[C@@]5(C)CC[C@H](OC(=O)C6CC(C(=O)O)C6(C)C)C(C)(C)[C@@H]5CC[C@]43C)[C@@H]12 (stereo partly drawn) [Compound 41, 2,2-dimethyl-3-((((1R,3aS,5aR,5bR,7aR,9S,11aR,11bR,13aR,13bR)-5a,5b,8,8,11a-pentamethyl-3a-((R)-2-(5-phenyl-1H-imidazol-2-yl)pyrrolidine-1-carbonyl)-1-(prop-1-en-2-yl)icosahydro-1H-cyclopenta[a]chrysen-9-yl)oxy)carbonyl)cyclobutane-1-carboxylic acid]	98%	99%	
